In patent publication US10969382B2, “Systems and methods for assessing data collected from an electrically active cell culture” (Axion BioSystems, Inc., priority 2015, dated 2021):
“Also recorded” adds a separate entry of the source.

Tested on: cardiomyocyte culture
Assay: Global conduction velocity (GCV) of beat propagation measured on a microelectrode array
Assay type: cell-based
Conditions: increasing flecainide concentration; FIG. 8C
Excerpt: example, within 30 ms). FIG. 6A is a representation of an array of electrodes 22 of an exemplary well of a MEA 20 having electrodes 22 spaced 200 μm from one another in the vertical and horizontal directions. It is to be appreciated that the number of electrodes 22 and the spacing shown in FIG. 6A are for example purposes only and greater or fewer electrodes 22 can be used and the spacing can also differ from what is shown. […] The beat timestamps, or arrival times, on the neighboring beat receiving electrodes can be used to generate a data array of delay times, as shown in Table 1. […] For the exemplary beat shown in Table 1, the beat starting electrode 30 is represented by the data point in column 1, row 2. The delay time (tdi) at each electrode 22 is the difference between the beat arrival time (ti) on that particular beat receiving electrode 22 and the beat start time, to, at the beat starting electrode 30. tdi=ti−t0 The velocity at which a beat propagates through the cellular network, or the conduction velocity, is a useful parameter for assessing a cardiomyocyte culture. However, the conduction velocity can vary depending upon the location within the cell culture, and thus it is another example of a parameter that is subject to spatial variability. […]

O=C(NCC1CCCCN1)c1cc(OCC(F)(F)F)ccc1OCC(F)(F)F (stereo not shown) [flecainide]
conduction velocity using the GCV method: systematically reduced; also recorded: slows
